The species entered for this test is Homo sapiens. The test is described as follows: Compound tested for hallucinogenic activity in humans was reported; Value reported in (A)= Mescaline units. The format is functional.
In the case of `COc1cc(CC(C)N)c(OC)c(OC)c1` (stereo not given), the Activity is given as 4. Next, `COc1cc2c(cc1CC(C)N)OCO2` (stereo not given): 8; `COc1cc(CC(C)N)cc(OC)c1Br` (stereo not given): 43. With `COc1cc(CC(C)N)c(OC)cc1CCF` (stereo not given), the Activity is on record as 110. `CCCCSc1c(OC)cc(CCN)cc1OC` had an Activity of 3.

In turn, `C=CCOc1c(OC)cc(CC(C)N)cc1OC` (stereo not given) registered an Activity of 11. `COCCSc1cc(OC)c(CCN)cc1OC`: the Activity is given as 9. Next, `COc1cc(CC(C)N)c(SC)cc1C` (stereo not given): 4.

In turn, `COc1cc(CCN)c(OC)c2c1C1CCC2C1` (stereo not given) showed an Activity of 22.

`COc1cc(CCN)c(OC)cc1C` yielded an Activity of 8. Next, `CCc1cc(OC)c(CCN)cc1OC`: 18; `CCOc1cc(CCN)cc(OC)c1OCC`: 1.3; `COc1cc(CC(C)N)c(OC)c2c1CCC2` (stereo not given): 20. `COc1cc(CCN)c(OC)cc1Cl`: the Activity is listed as 10. The value for `COc1cc(CC(C)N)c(OC)c(OC)c1OC` (stereo not given) was 6; that for `COc1ccc(OC)c(OC)c1CC(C)N` (stereo not given) was 10; that for `COc1cc(CCN)cc(OC)c1OC(C)C` was 5.

For `CC(C)(N)Cc1ccc2c(c1)OCO2`, the Activity is reported as 1.5. Compound `CCSc1cc(CCN)cc(OC)c1OC` registered an Activity of 4. Next, `CCNC(C)Cc1ccc2c(c1)OCO2` (stereo not given): 2. In turn, `COc1cc(CC(C)N)c(OC)c2c1OCO2` (stereo not given) returned an Activity of 6.

For the compound `CCCSc1cc(OC)c(CCN)cc1OC`, the Activity was 15.

As for `COc1cc(CC(C)N)cc2c1OCO2` (stereo not given), the Activity was found to be 2.

In the case of `COc1cc(SCCF)c(OC)cc1CCN`, the Activity is reported as 29. On to `CCOc1cc(CCN)cc(SC)c1OCC`, for which the Activity came out at 2.

Regarding `CCOc1c(OC)cc(CCN)cc1SCC`, the Activity was determined as 2. The value for `C=C(C)COc1c(OC)cc(CCN)cc1OC` was 6. The value for `CCOc1cc(CCN)cc(OC)c1SCC` was 4; that for `CCOc1cc(CCN)cc(OC)c1OC` was 1; that for `CCc1cc(OC)c(CC(C)N)cc1SC` (stereo not given) was 15.

`COc1cc(CCN)c(OC)c(C)c1C` returned an Activity of 11.

Compound `COc1cc(SC)c(OC)cc1CCN` registered an Activity of 4. Regarding `CCC(C)Sc1cc(OC)c(CCN)cc1OC` (stereo not given), the Activity was 4. The value for `COc1cc(SC(C)(C)C)c(OC)cc1CCN` was 4; that for `CC(Cc1ccc2c(c1)OCO2)NO` (stereo not given) was 2.3; that for `CCC(C)Sc1cc(OC)c(CCNO)cc1OC` (stereo not given) was 3. Compound `CCCSc1cc(OC)c(CCNO)cc1OC` came in with an Activity of 15. Next, `CCSc1cc(OC)c(CCNO)cc1OC`: 22. The value for `COc1c(CC(C)N)ccc2c1OCO2` (stereo not given) was 6; that for `COc1cc(SC(C)C)c(OC)cc1CC(C)N` (stereo not given) was 32; that for `COc1cc(CCN)cc(OC)c1C` was 4. Next, `CCCSc1c(OC)cc(CCN)cc1OC`: 16; `COc1cc(CC(C)N)cc(OC)c1OCc1ccccc1` (stereo not given): 3. Regarding `COc1cc(SCC2CC2)c(OC)cc1CCN`, the Activity turned out to be 7. The value for `CCOc1c(OC)cc(CC(C)N)cc1OC` (stereo not given) was 7; that for `COc1cc(C2CC2N)c(OC)cc1C` (stereo not given) was 17.

Compound `COc1cc(CCN)cc(SC)c1OC` returned an Activity of 4. The value for `CCC(Cc1ccc2c(c1)OCO2)NC` (stereo not given) was 1.5. The compound `COc1cc(CCN)cc(OC)c1SC` yielded an Activity of 10.

For the compound `COc1cc(CCN)c(OC)cc1Br`, the Activity amounted to 16.

In the case of `COc1cc(C)cc(OC)c1CC(C)N` (stereo not given), the Activity was 15. The value for `COc1cc(CC(C)N)cc(OC)c1OC` (stereo not given) was 2. Take `CCOc1c(OC)cc(CCN)cc1OC`: the Activity was determined as 6. The value for `CCOc1c(OC)cc(CCN)cc1SC` was 4. The value for `COc1cc(CCN)c(OC)c2ccccc12` was 10. The value for `COc1cc(C)c(SC)cc1CC(C)N` (stereo not given) was 7; that for `COc1cc(SC(C)C)c(OC)cc1CCN` was 21; that for `COc1cc(CCN)c(OC)cc1I` was 17.

On to `COc1cc(OC)c(CC(C)N)cc1Br` (stereo not given), for which the Activity was determined as 4.

The compound `CCCc1cc(OC)c(CCN)cc1OC` registered an Activity of 37. The value for `CCSc1cc(OC)c(CCN)cc1OC` was 16; that for `COc1cc(CC(C)N)c(OC)c(C)c1C` (stereo not given) was 12; that for `CCSc1cc(OC)c(CC(C)N)cc1OC` (stereo not given) was 50. Take `CCSc1c(OC)cc(CCN)cc1OC`: the Activity is listed as 12.

Compound `CCCOc1c(OC)cc(CCN)cc1OC` registered an Activity of 7. Next, `COc1cc(CCN)c(OC)c2c1CCC2`: 14; `COc1cc(OC)c(CC(C)N)c(OC)c1` (stereo not given): 10; `CCCSc1cc(OC)c(CC(C)N)cc1OC` (stereo not given): 55. As for `COc1cc(CCN)cc(OC)c1OCC1CC1`, the Activity worked out at 4. On to `CCOc1cc(CCN)cc(OC)c1SC`, for which the Activity was 4.

Compound `COc1cc(SC)c(OC)cc1CC(C)N` (stereo not given) yielded an Activity of 40. On to `CCC(N)Cc1ccc2c(c1)OCO2` (stereo not given), for which the Activity was determined as 1.5. For `COc1cc(CC(C)N)c(OC)cc1I` (stereo not given), the Activity amounted to 133. In the case of `COc1cc(CC(C)N)c(OC)cc1Cl` (stereo not given), the Activity is reported as 133. On to `CCc1cc(OC)c(CC(C)N)cc1OC` (stereo not given), for which the Activity worked out at 75.

The compound `CCOc1cc(OC)c(CC(C)N)cc1OC` (stereo not given) registered an Activity of 9.

In turn, `COc1cc([N+](=O)[O-])c(OC)cc1CC(C)N` (stereo not given) had an Activity of 80.

Consider `COc1cc(OC)c(OC)cc1CC(C)N` (stereo not given), for which the Activity came out at 10. With `CCCc1cc(OC)c(CC(C)N)cc1OC` (stereo not given), the Activity amounted to 80. Next, `COc1ccc(OC)c(CC(C)N)c1` (stereo not given): 2.5. `COc1cc(CC(C)N)c(OC)cc1Br` (stereo not given) [BROLAMFETAMINE] returned an Activity of 150.

Regarding `COc1cc(CC(C)N)c(OC)cc1C` (stereo not given) [DOM], the Activity was determined as 50.

Turning to `COc1cc(CCN)cc(OC)c1OC` [MESCALINE], the Activity is on record as 1. Next, `COc1ccc(CC(C)N)cc1` (stereo not given) [PARA-METHOXYAMPHETAMINE]: 5. For `CC(N)Cc1ccc2c(c1)OCO2` (stereo not given) [TENAMFETAMINE], the Activity was found to be 3.
